Source: the CombiSolv-Exp solvation set (Vermeire and Green 2021)

Assay: solvent given as SMILES

CC(C)C
Conditions	solvation free energy, 298 K [kcal/mol]
in C1CCC2CCCCC2C1	-2
in CC1COC(=O)O1	-0.87
in CC(C)(C)O	-1.86
in CC(C)=O	-1.87
in CC(C)CCO	-1.8
in CC(C)CO	-1.8
in CC(C)O	-1.9
in CCC(C)(C)O	-1.92
in CCC(C)CO	-1.8
in CCC(C)O	-1.79
in CCC(O)CC	-1.83
in CCCC(C)O	-1.8
in CCCCC	-2.38
in CCCCCC	-2.33
in CCCCCCC	-2.31
in CCCCCCCC	-2.3
in CCCCCCCCC	-2.2
in CCCCCCCCCC	-2.23
in CCCCCCCCCCCCCCCC	-1.91
in CCCCCCCO	-1.68
in CCCCCO	-1.79
in CCCCO	-1.91
in CCCO	-1.77
in CCO	-1.64
in CCOC(C)=O	-2.16
in CCOCC	-2.33
in CN1CCCC1=O	-1.2
in CN(C)C=O	-1.32
in CN(C)P(=O)(N(C)C)N(C)C	-1.53
in CO	-1.46
in COCCOCCOCCOC	-1.18
in CS(C)=O	-0.53
in Cc1ccc(C)cc1	-2.06
in Cc1cccc(C)c1	-2.07
in Cc1ccccc1C	-2.04
in ClC(Cl)(Cl)Cl	-2.37
in Clc1ccccc1	-2.25
in Nc1ccccc1	-1.07
in O	2.32
in O=CN1CCOCC1	-0.64
in OC1CCCCC1	-1.55
in OCCCOCCCO	-0.87
in OCCO	-0.19
in OCc1ccccc1	-1.16
in c1ccccc1	-2.08

CC1=CCC(C(C)C)C=C1 (stereo unspecified)
Conditions	solvation free energy, 298 K [kcal/mol]
in O	0.2

CCC=C(C)C
Conditions	solvation free energy, 298 K [kcal/mol]
in C=CCCCCCCCCCCCCCC	-3.42
in CN1CCCC1=O	-3.06
in CN(C)C=O	-3.12
in O	1.47

CC(=O)OCCc1ccccc1
Conditions	solvation free energy, 298 K [kcal/mol]
in O	-5.5

CN(C)CC=C(c1ccc(Br)cc1)c1cccnc1
Conditions	solvation free energy, 298 K [kcal/mol]
in O	-11.9

BrC(Br)Br
Conditions	solvation free energy, 298 K [kcal/mol]
in O	-1.96

CCCCN(CC)N=O
Conditions	solvation free energy, 298 K [kcal/mol]
in CC(C)CC(C)(C)C	-6.49
in O	-5.25

c1ccc2ncccc2c1
Conditions	solvation free energy, 298 K [kcal/mol]
in CC(C)CC(C)(C)C	-7.14
in O	-5.72

COc1ccccc1C(=O)O
Conditions	solvation free energy, 298 K [kcal/mol]
in C1CCOC1	-11.8
in C1COCCO1	-11.7
in CC(C)(C)O	-11
in CC(C)CCO	-10.8
in CC(C)CO	-10.9
in CC(C)O	-10.9
in CC(C)OCCO	-11.2
in CC(O)COC(C)(C)C	-11
in CCC(C)O	-11
in CCCC(C)O	-10.8
in CCCCCCCCCCO	-10.5
in CCCCCCCO	-10.8
in CCCCCCO	-10.8
in CCCCCO	-10.9
in CCCCCOC(C)=O	-10.6
in CCCCO	-11.1
in CCCCOC(C)=O	-10.8
in CCCCOCCO	-11.4
in CCCO	-11.2
in CCCOCCO	-11.3
in CCO	-11.5
in CCOC(C)=O	-11.2
in CCOCC	-10.5
in CCOCCO	-11.5
in CO	-11.8
in COC(C)=O	-11.3
in COC(C)CCO	-11.4

O=C(O)C=Cc1ccccc1
Conditions	solvation free energy, 298 K [kcal/mol]
in O	-8.38

O=C(O)c1ccccc1O
Conditions	solvation free energy, 298 K [kcal/mol]
in C1CCOC1	-10.8
in C1COCCO1	-10.3
in CC(C)(C)O	-10.4
in CC(C)=O	-10.5
in CC(C)CCO	-10.1
in CC(C)CO	-10.2
in CC(C)O	-10.4
in CCC(C)=O	-10.4
in CCC(C)O	-10.3
in CCCC(C)O	-10.3
in CCCCCCCCO	-10.2
in CCCCCCO	-10.2
in CCCCCO	-10.2
in CCCCO	-10.3
in CCCCOC(C)=O	-10
in CCCCOCCCC	-9.58
in CCCO	-10.3
in CCO	-10.4
in CCOC(C)=O	-10.1
in CCOCC	-10.2
in CN(C)C=O	-10.9
in CO	-10.5
in COC(C)(C)C	-10.2
in COC(C)=O	-10.2
in Clc1ccccc1	-8.36
in NC=O	-9.97
in O	-7.35
in O=C1CCCCC1	-10.4

CCCC(O)CC (stereo unspecified)
Conditions	solvation free energy, 298 K [kcal/mol]
in O	-4.06

CCC(C)(C)CC
Conditions	solvation free energy, 298 K [kcal/mol]
in C=CCCCCCCCCCCCCCC	-3.89

O=[N+]([O-])c1ccc(O)cc1
Conditions	solvation free energy, 298 K [kcal/mol]
in CCCCCC	-7.93
in CCCCCCC	-7.93
in CCCCCCCC	-7.93
in CCCCCCCCCC	-7.93
in CCCCOCCCC	-11.8
in O	-10.7

O=C(O)Cc1ccc(O)cc1
Conditions	solvation free energy, 298 K [kcal/mol]
in CCOC(C)=O	-13.6
in O	-13

CCn1ccc(NS(=O)(=O)c2ccc(N)cc2)nc1=O
Conditions	solvation free energy, 298 K [kcal/mol]
in O	-20.6

Cc1cccc(C)c1
Conditions	solvation free energy, 298 K [kcal/mol]
in CC#N	-5.18
in CC(C)CC(C)(C)C	-5.12
in CC(O)CO	-4.13
in CCCCCCC	-5.39
in CCCCCCCCCCCCCCCC	-5.27
in CCCCCCCCO	-5.16
in CCCCOC(C)=O	-6.06
in CNC=O	-4.82
in COCCO	-5.09
in ClCCCl	-5.98
in NC=O	-3.29
in NCCO	-3.85
in O	-0.78
in O=CN1CCOCC1	-5.03
in OCCO	-3.42
in OCCOCCO	-4.26
in OCCOCCOCCO	-4.4
in c1ccccc1	-5.99

CCCC1CCCCC1
Conditions	solvation free energy, 298 K [kcal/mol]
in CN1CCCC1=O	-4.57
in NC=O	-1.91
in O	1.8

Nc1ccc(Cl)cc1
Conditions	solvation free energy, 298 K [kcal/mol]
in O	-5.91

C1CNCCN1
Conditions	solvation free energy, 298 K [kcal/mol]
in O	-7.4

CCC(=O)c1c(C)[nH]n(-c2ccccc2)c1=O
Conditions	solvation free energy, 298 K [kcal/mol]
in O	-9.74

CCC(C)(C)C
Conditions	solvation free energy, 298 K [kcal/mol]
in C=CCCCCCCCCCCCCCC	-3.12
in CC#N	-2.32
in CC(C)CCCC(C)CCCC(C)CCCCC(C)CCCC(C)CCCC(C)C	-3
in CC(C)O	-2.73
in CCC(C)(C)OC	-3.49
in CCCCCC	-3.63
in CCCCCCCCCC	-3.38
in CCCCCCCCCCCCCCCC	-3.18
in CCCCCCCCCOC(=O)c1ccccc1C(=O)OCCCCCCCCC	-2.76
in CCCCCO	-2.93
in CCCCO	-2.89
in CN1CCCC1=O	-2.13
in CN(C)C=O	-2.33
in O	2.51

ClC(Cl)C(Cl)(Cl)Cl
Conditions	solvation free energy, 298 K [kcal/mol]
in O	-1.31

CS
Conditions	solvation free energy, 298 K [kcal/mol]
in O	-1.18

CC(C)CCC(C)O (stereo unspecified)
Conditions	solvation free energy, 298 K [kcal/mol]
in CCCCCCCC	-5.33
in CCCCCCCCCC	-5.22

CC(=O)O
Conditions	solvation free energy, 298 K [kcal/mol]
in C=CCCCCCCC=C	-2.71
in C=CCCCCCCCCCCCCCC	-2.41
in [2H]O[2H]	-6.55

CC1CCCCC1
Conditions	solvation free energy, 298 K [kcal/mol]
in C1CCOC1	-4.67
in C1COCCO1	-4.09
in CC1CCS(=O)(=O)C1	-3
in CC#N	-3.28
in CC(=O)N(C)C	-3.68
in CC(C)=O	-3.93
in CC(C)CCCC(C)CCCC(C)CCCCC(C)CCCC(C)CCCC(C)C	-4.3
in CC(C)O	-3.79
in CCC#N	-4.07
in CCC(C)=O	-4.12
in CCCC#N	-3.63
in CCCCC(CC)COC(=O)c1ccccc1C(=O)OCC(CC)CCCC	-3.99
in CCCCCCC	-4.79
in CCCCCCCCC=CCCCCCCCC(=O)OCC(COC(=O)CCCCCCCC=CCCCCCCCC)OC(=O)CCCCCCCC=CCCCCCCCC	-4.26
in CCCCCCCCCC	-4.57
in CCCCCCCO	-4.16
in CCCCN(C=O)CCCC	-4.05
in CCCCOC(=O)c1ccccc1C(=O)OCCCC	-4.11
in CCOC(=O)c1ccccc1C(=O)OCC	-3.59
in CN1CCCC1=O	-3.59
in CN1CCCCC1=O	-3.72
in CN(C)C=O	-3.52
in CNC(C)=O	-3.59
in CNC=O	-3.18
in COC(C)(C)C	-4.8
in COCCO	-3.47
in CS(C)=O	-2.73
in NC=O	-1.42
in Nc1ccccc1	-3.29
in O	1.7
in O=C1CCCO1	-3
in O=CN1CCOCC1	-2.94
in OCCCCCO	-2.87
in OCCCCO	-2.77
in OCCCO	-2.39
in OCCO	-1.58
in OCCOCCO	-2.38
in OCCOCCOCCO	-2.44
in OCCOCCOCCOCCO	-2.55
in OCCS	-2.82

Cc1cccc(C)c1N
Conditions	solvation free energy, 298 K [kcal/mol]
in O	-5.21

CCCCCN(CCCCC)N=O
Conditions	solvation free energy, 298 K [kcal/mol]
in CC(C)CC(C)(C)C	-9.29

O=Cc1ccc(C(=O)O)cc1
Conditions	solvation free energy, 298 K [kcal/mol]
in CN1CCCC1=O	-12.8
in O	-8.94

CCN
Conditions	solvation free energy, 298 K [kcal/mol]
in CCCCCC	-2.29
in CCCCCCC	-2.09
in CCCCCCCC	-2.05
in CCCCCCCCCC	-1.93
in CCCCCCCCCCCCCCCC	-2.22
in O	-4.5

COC(=O)C1CCCCC1
Conditions	solvation free energy, 298 K [kcal/mol]
in O	-3.3

CC(C)NC(C)C
Conditions	solvation free energy, 298 K [kcal/mol]
in O	-3.22
